Source: patent publication US20240009191A1, “METHOD AND COMPOSITION FOR THE TREATMENT OF DISEASE” (DIMERIX BIOSCIENCE PTY LTD, priority 2019, published 2024)

What was measured:
Assay type in all cases: cell-based
AT1R-CXCR2 heteromer [1] = biological target: T1, AT1R-CXCR2 heteromer (Homo sapiens, UniProt P25025+P30556); test: BRET trafficking of CXCR2/Rluc8 (Venus/Kras, Rab5, Rab8) with HA-AT1R, pre-treatment with vehicle or antagonists/inverse agonists; conditions: 50 minutes after pre-treatment (10 μM); for effect of both CXCL8 and AngII combined on CXCR2/Rluc8-Venus/Kras BRET / effect of both CXCL8 and AngII combined on CXCR2/Rluc8-Venus/Rab5 BRET / effect of both CXCL8 and AngII combined on CXCR2/Rluc8-Venus/Rab8 BRET: 10 nM CXCL8 and 100 nM AngII; for effect of both CXCL8 and AngII combined on CXCR2/Rluc8-Venus/Kras BRET: FIG. 16C, 16E-16H; for effect of both CXCL8 and AngII combined on CXCR2/Rluc8-Venus/Rab5 BRET: FIG. 17C, 17E-17H; for effect of both CXCL8 and AngII combined on CXCR2/Rluc8-Venus/Rab8 BRET: FIG. 18C, 18E-18H; for effect of AngII on CXCR2/Rluc8-Venus/Kras BRET / effect of AngII on CXCR2/Rluc8-Venus/Rab5 BRET / effect of AngII on CXCR2/Rluc8-Venus/Rab8 BRET: 100 nM AngII only; for effect of AngII on CXCR2/Rluc8-Venus/Kras BRET: FIG. 16B, 16D; for effect of AngII on CXCR2/Rluc8-Venus/Rab5 BRET: FIG. 17B, 17D; for effect of AngII on CXCR2/Rluc8-Venus/Rab8 BRET: FIG. 18B, 18D
T1 sequence (P25025 1-360): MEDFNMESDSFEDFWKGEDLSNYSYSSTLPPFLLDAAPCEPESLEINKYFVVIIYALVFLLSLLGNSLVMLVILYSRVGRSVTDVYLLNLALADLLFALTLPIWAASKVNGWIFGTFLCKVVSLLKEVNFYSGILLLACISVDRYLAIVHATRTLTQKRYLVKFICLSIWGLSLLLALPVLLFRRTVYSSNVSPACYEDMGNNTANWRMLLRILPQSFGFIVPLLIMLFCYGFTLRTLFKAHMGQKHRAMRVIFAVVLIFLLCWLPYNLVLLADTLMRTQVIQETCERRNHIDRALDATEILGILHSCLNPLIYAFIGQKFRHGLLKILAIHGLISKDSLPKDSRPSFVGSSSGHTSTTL
T1 sequence (P30556 1-359): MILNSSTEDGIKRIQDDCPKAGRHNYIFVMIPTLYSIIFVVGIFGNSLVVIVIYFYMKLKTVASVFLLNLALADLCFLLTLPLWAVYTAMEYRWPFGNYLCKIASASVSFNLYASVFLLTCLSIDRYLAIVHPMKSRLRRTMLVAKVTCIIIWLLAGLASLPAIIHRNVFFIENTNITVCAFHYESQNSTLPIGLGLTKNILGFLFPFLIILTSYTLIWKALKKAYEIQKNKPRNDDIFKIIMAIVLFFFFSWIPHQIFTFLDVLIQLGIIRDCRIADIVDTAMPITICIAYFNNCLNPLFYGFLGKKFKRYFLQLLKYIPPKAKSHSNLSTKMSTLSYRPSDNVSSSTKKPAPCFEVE
Procedure: (§1) HEK293FT cells were seeded in 6-well plates at a density of approximately 700,000 cells/well and maintained at 37° C., 5% CO2 in Complete Media (DMEM containing 0.3 mg/ml glutamine, 100 IU/ml penicillin and 100 μg/ml streptomycin (Gibco/Thermo Fisher)) supplemented with 10% fetal calf serum (FCS; Bovogen). Transient transfections were carried out 24 h after seeding using FuGene6™ (Promega) according to manufacturer instructions. 24 h post-transfection, cells were washed with PBS, detached using 0.05% trypsin/0.53 mM EDTA, resuspended in HEPES-buffered phenol red free Complete Media containing 5% FCS and added to a poly-L-lysine-coated white 96-well microplate (Greiner Bio-One). 48 h post-transfection, bioluminescence resonance energy transfer (BRET) assays were carried out following pre-incubation of cells with EnduRen™ (Promega) at a final concentration of 30 μM, at 37° C., 5% CO2 for 2 h. BRET measurements were taken at 37° C. using the LUMlstar™ or CLARIOstar™ (BMG Labtech).
(§2) For antagonist/inverse agonist assays, cells were pre-incubated with EnduRen for 1.5 hours, followed by the addition of vehicle or antagonists/inverse agonists (10 μM) for another 30 minutes.
(§3) The BRET signal observed between interacting proteins is normalized by subtracting the background BRET ratio. […] In the following examples, the second calculation will be used and the signal is described as ligand-induced BRET′. Furthermore, for data shown in FIGS. 4 to 20, all data points in a given set are corrected relative to the final data point prior to agonist treatment, which is fixed to zero. In keys on FIGS. 7 to 20, “>” means “followed by after 50 minutes”, with agonists added at time zero on the x-axes.
(§4) Prior to agonist treatment (added at 0 minutes), a baseline BRET signal was recorded for each of the combinations for 20 minutes. Data were calculated as ligand-induced BRET relative to the ‘vehicle followed by vehicle’ (veh>veh) data set.

AT1R-CXCR2 heteromer [2] = biological target: T2, AT1R-CXCR2 heteromer (Homo sapiens, UniProt P25025+P30556); test: BRET trafficking of AT1R/Rluc8 (Venus/Kras, Rab5) with unlabelled CXCR2, pre-treatment with vehicle or antagonists/inverse agonists; conditions: 50 minutes after pre-treatment (10 μM); for effect of both CXCL8 and AngII combined on AT1R/Rluc8-Venus/Kras BRET / effect of both CXCL8 and AngII combined on AT1R/Rluc8-Venus/Rab5 BRET: 10 nM CXCL8 and 100 nM AngII; for effect of both CXCL8 and AngII combined on AT1R/Rluc8-Venus/Kras BRET: FIG. 19B-19F; for effect of both CXCL8 and AngII combined on AT1R/Rluc8-Venus/Rab5 BRET: FIG. 20B-20F; for effect of AngII on AT1R/Rluc8-Venus/Kras BRET / effect of AngII on AT1R/Rluc8-Venus/Rab5 BRET: 100 nM AngII only; for effect of AngII on AT1R/Rluc8-Venus/Kras BRET: FIG. 19A; for effect of AngII on AT1R/Rluc8-Venus/Rab5 BRET: FIG. 20A
T2 sequence (P30556 1-359): T1 sequence (P30556 1-359)
T2 sequence (P25025 1-360): T1 sequence (P25025 1-360)
Procedure: as §1, §2, §3, §4

AT1R-CXCR2 heteromer [3] = biological target: T1, AT1R-CXCR2 heteromer; test: BRET Gi coupling, CXCR2/Rluc8, Venus/mGsi and HA-AT1R, pre-treatment with antagonists/inverse agonists; conditions: FIGS. 6-15; for effect of CXCL8 only on CXCR2/Rluc8-Venus/mGsi BRET: 10 nM CXCL8, 50 minutes after pre-treatment with antagonists/inverse agonists (10 μM); for effect of CXCL8 and AngII combined on CXCR2/Rluc8-Venus/mGsi BRET: 10 nM CXCL8 and 100 nM AngII; for effect of CXCL8 and AngII combined on CXCR2/Rluc8-Venus/mGsi BRET / effect of AngII only on CXCR2/Rluc8-Venus/mGsi BRET: 50 minutes after pre-treatment with antagonists/inverse agonists (10 μM); for effect of AngII only on CXCR2/Rluc8-Venus/mGsi BRET: 100 nM AngII
Procedure: as §1, §2, §3, §4

| Structure (SMILES) | effect of both CXCL8 and AngII combined on CXCR2/Rluc8-Venus/Kras BRET (AT1R-CXCR2 heteromer [1]) | effect of both CXCL8 and AngII combined on CXCR2/Rluc8-Venus/Rab5 BRET (AT1R-CXCR2 heteromer [1]) | effect of both CXCL8 and AngII combined on CXCR2/Rluc8-Venus/Rab8 BRET (AT1R-CXCR2 heteromer [1]) | effect of AngII on CXCR2/Rluc8-Venus/Kras BRET (AT1R-CXCR2 heteromer [1]) | effect of AngII on CXCR2/Rluc8-Venus/Rab5 BRET (AT1R-CXCR2 heteromer [1]) | effect of AngII on CXCR2/Rluc8-Venus/Rab8 BRET (AT1R-CXCR2 heteromer [1]) | effect of both CXCL8 and AngII combined on AT1R/Rluc8-Venus/Kras BRET (AT1R-CXCR2 heteromer [2]) | effect of both CXCL8 and AngII combined on AT1R/Rluc8-Venus/Rab5 BRET (AT1R-CXCR2 heteromer [2]) | effect of CXCL8 only on CXCR2/Rluc8-Venus/mGsi BRET (AT1R-CXCR2 heteromer [3]) | effect of CXCL8 and AngII combined on CXCR2/Rluc8-Venus/mGsi BRET (AT1R-CXCR2 heteromer [3]) | effect of AngII only on CXCR2/Rluc8-Venus/mGsi BRET (AT1R-CXCR2 heteromer [3]) | effect of AngII on AT1R/Rluc8-Venus/Kras BRET (AT1R-CXCR2 heteromer [2]) | effect of AngII on AT1R/Rluc8-Venus/Rab5 BRET (AT1R-CXCR2 heteromer [2]) |
| --- | --- | --- | --- | --- | --- | --- | --- | --- | --- | --- | --- | --- | --- |
| O=C(Nc1ccc([N+](=O)[O-])cc1O)Nc1ccccc1Br [SB225002] | indistinguishable from the effect observed with AngII only | appears to inhibit the effect of AngII as well as that of CXCL8 | indistinguishable from the effect observed with AngII only | did not alter | did appear to inhibit | did not alter | indistinguishable from the effect observed with AngII only | indistinguishable from the effect observed with AngII only | completely inhibited | indistinguishable from that observed with AngII only | not being altered | – | – |
| CCOc1nc2cccc(C(=O)O)c2n1Cc1ccc(-c2ccccc2-c2nc(=O)o[nH]2)cc1 [azilsartan] | indistinguishable from the effect observed with CXCL8 only | indistinguishable from the effect observed with CXCL8 only | completely inhibited | completely inhibited | completely inhibited | completely inhibited | completely inhibited | completely inhibited | not being altered | indistinguishable from that observed with CXCL8 only | completely inhibited | completely inhibited | completely inhibited |
| CCOc1nc2cccc(C(=O)O)c2n1Cc1ccc(-c2ccccc2-c2nnn[nH]2)cc1 [candesartan] | – | – | – | – | – | – | – | – | not being altered | indistinguishable from that observed with CXCL8 only | completely inhibited | – | – |
| Cc1c(F)cccc1NC(=O)Nc1ccc(Cl)c(S(=O)(=O)[C@H]2CCCNC2)c1O [danirixin] | – | – | – | – | – | – | indistinguishable from the effect observed with AngII only | indistinguishable from the effect observed with AngII only | completely inhibited | indistinguishable from that observed with AngII only | not being altered | – | – |
| CCCCc1ncc(/C=C(\Cc2cccs2)C(=O)O)n1Cc1ccc(C(=O)O)cc1 [eprosartan] | – | – | – | – | – | – | – | – | not being altered | indistinguishable from that observed with CXCL8 only | completely inhibited | – | – |
| CCCCC1=NC2(CCCC2)C(=O)N1Cc1ccc(-c2ccccc2-c2nnn[nH]2)cc1 [irbesartan] | indistinguishable from the effect observed with CXCL8 only | indistinguishable from the effect observed with CXCL8 only | completely inhibited | completely inhibited | completely inhibited | completely inhibited | completely inhibited | completely inhibited | not being altered | indistinguishable from that observed with CXCL8 only | completely inhibited | completely inhibited | completely inhibited |
| CCCCc1nc(Cl)c(CO)n1Cc1ccc(-c2ccccc2-c2nn[nH]n2)cc1 [losartan] | – | – | – | – | – | – | – | – | not being altered | indistinguishable from that observed with CXCL8 only | completely inhibited | – | – |
| CC[C@@H](Nc1c(Nc2cccc(C(=O)N(C)C)c2O)c(=O)c1=O)c1ccc(C)o1 [navarixin] | indistinguishable from the effect observed with AngII only | indistinguishable from the effect observed with AngII only | indistinguishable from the effect observed with AngII only | did not alter | did not alter | did not alter | indistinguishable from the effect observed with AngII only | indistinguishable from the effect observed with AngII only | completely inhibited | indistinguishable from that observed with AngII only | not being altered | – | – |
| CCCc1nc2c(C)cc(-c3nc4ccccc4n3C)cc2n1Cc1ccc(-c2ccccc2C(=O)O)cc1 [telmisartan] | – | – | – | – | – | – | – | – | not being altered | indistinguishable from that observed with CXCL8 only | completely inhibited | – | – |
